Test results reported in patent publication US20240101576A1, “HETEROCYCLIC INHIBITORS OF EGFR AND/OR HER2, FOR USE IN THE TREATMENT OF CANCER” (Scorpion Therapeutics, Inc., priority 2020, published 2024).
pIC50: −log10 of the molar value.

Legend:
Assay type in all cases: cell-based
[1] = molecular target: T1, EGFR exon 20 NPG Ins D770_N771 (Ba/F3 cells) (Homo sapiens, UniProt P00533, INS770NPG); assay: Inhibitor activity on EGFR-dependent cell growth (CellTiter-Glo, 72 h), Ba/F3 EGFR exon 20 NPG Ins; conditions: read-out: BaF3 NPG IC50
T1 construct: expressed in transfected cells; host or cells: Ba/F3 (murine pro-B cells), retroviral transduction, puromycin selection, IL3-independent pool
In short: (§1)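 IC50s derive from a sigmoidal dose–response fit of CellTiter-Glo signal. The signal was normalised between […]-treated cells and cell-free medium. Ba/F3 mutant-EGFR cells, seeded at 400–800/well depending on the line, had 72 h of exposure to a 10-point, 3-fold compound series.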

[2] = molecular target: T2, EGFR L858R/C797S (Ba/F3 cells) (Homo sapiens, UniProt P00533, C797S/L858R); assay: Inhibitor activity on EGFR phosphorylation (pEGFR AlphaLISA, 2 h), Ba/F3 EGFR L858R/C797S
T2 construct: expressed in transfected cells; host or cells: Ba/F3 (murine pro-B cells), retroviral transduction, puromycin selection, IL3-independent pool
In short: (§2)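 IL3-independent Ba/F3 cells transduced with mutant EGFR (50K/well) or CUTO14 cells (12.5K/well) were treated 2 h with 10-point, 3-fold compound dilutions. Phospho-EGFR in lysates was measured by AlphaLISA to derive IC50.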

[3] = molecular target: T3, EGFR exon 19del (Ba/F3 cells) (Homo sapiens, UniProt P00533); assay: Inhibitor activity on EGFR phosphorylation (pEGFR AlphaLISA, 2 h), Ba/F3 EGFR exon 19del; conditions: read-out: Del19 IC50 (pEGFR)
In short: as §2

[4] = molecular target: EGFR (CUTO14 cells) (Homo sapiens, UniProt P00533); assay: Inhibitor activity on EGFR phosphorylation (pEGFR AlphaLISA, 2 h), CUTO14 cells
In short: as §2

[5] = molecular target: T4, EGFR exon 20 ASV Ins V769_D770 (Ba/F3 cells) (Homo sapiens, UniProt P00533, INS769ASV); assay: Inhibitor activity on EGFR-dependent cell growth (CellTiter-Glo, 72 h), Ba/F3 EGFR exon 20 ASV Ins; conditions: read-out: BaF3 ASV IC50
T4 construct: expressed in transfected cells; host or cells: Ba/F3 (murine pro-B cells), retroviral transduction, puromycin selection, IL3-independent pool
In short: as §1

[6] = molecular target: T5, EGFR exon 20 SVD Ins D770_N771 (Ba/F3 cells) (Homo sapiens, UniProt P00533, INS770SVD); assay: Inhibitor activity on EGFR phosphorylation (pEGFR AlphaLISA, 2 h), Ba/F3 EGFR exon 20 SVD Ins
T5 construct: expressed in transfected cells; host or cells: Ba/F3 (murine pro-B cells), retroviral transduction, puromycin selection, IL3-independent pool
From the text: Example B. Inhibitor Activity on EGFR phosphorylation (pEGFR)
EGFR mutant Ba/F3 cells were generated by transduction with retrovirus containing vectors expressing EGFR L858R, EGFR exon 19del, EGFR L858R/C797S, EGFR exon 20 NPG Ins D770_N771, EGFR exon 20 ASV Ins V769_D770, or EGFR exon 20 SVD Ins D770_N771 genes along with a puromycin selection marker. Transduced cells are selected with puromycin for 7 days and are then be transferred into culture media without Interleukin 3 (IL3). Surviving cells are confirmed to express EGFR by Western blot and maintained as a pool. CUTO14 cells were obtained from Dr. Robert C. Doebele at the University of Colorado. The IC50 date are included in Table 6 and Table 7.
1.1 Cells are harvested from flask into cell culture medium and the cell number counted.
1.2 Cells are diluted with culture medium to the desired density and 40 μL of cell suspension is added into each well of 384-well cell culture plate and the seeding density is 50K cells/well (Ba/F3) or 12.5K cells/well (CUTO14).
2 Compound Preparation and Treatment
2.1 Test compounds are dissolved to 10 mM in a DMSO stock solution. 45 μL of stock solution is transferred to a 384 polypropylene plate (pp-plate). Perform 3-fold, 10-point dilution via transferring 15 μL compound into 30 μL DMSO using a TECAN (EVO200) liquid handler.
2.2 Spin plates at room temperature at 1,000 RPM for 1 minute.
2.3 Transfer 5 nL of diluted compound from compound source plate into the cell plate.
2.4 After compound treatment for 2 hours, perform pEGFR detection by AlphaLISA for compound treatment plates as described in “Detection” section.
3 Detection by pEGFR AlphaLISA (Perkin-Elmer)
3.1 Plates are removed from incubators and equilibrated at room temperature for 10 minutes, and media was removed
3.2 10 μL of lysis buffer is added and plates shaken at 600 rpm for 1 hr.
3.3 Prepare acceptor mix just before use and dispense 5 μL of acceptor mix to all the wells. Shake 350 rpm for Ihr in the dark
3.4 Prepare donor mix under low light conditions prior to use. Dispense 5 μL of donor mix to all the wells. Mix well on the shaker, seal and wrap in aluminum foil and incubate 1.5 hrs at room temperature in the dark
3.5 Transfer 18.5 μL mixture to OptiPlate 384, and read using an Envision. The IC50 date were included in Table 6 and Table 7.

[7] = molecular target: T2, EGFR L858R/C797S (Ba/F3 cells); assay: Inhibitor activity on EGFR-dependent cell growth (CellTiter-Glo, 72 h), Ba/F3 EGFR L858R/C797S; conditions: read-out: BaF3 L858R/C797S IC50
In short: (§3)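 Ba/F3, retrovirally transduced, puromycin-selected, grown without IL3; cells/well: L858R 400, L858R/C797S 600, exon 19del 800, FQEA 800. Cpds from 10 mM DMSO stock, 3-fold ×10 dilution, 120 nL per well; 72 h. CTG readout; IC50 via Hill equation.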

[8] = molecular target: T6, EGFR WT (Ba/F3 cells) (Homo sapiens, UniProt P00533); assay: Inhibitor activity on EGFR-dependent cell growth (CellTiter-Glo, 72 h), Ba/F3 EGFR WT; conditions: read-out: BaF3 WT IC50
T6 construct: expressed in transfected cells; host or cells: Ba/F3 (murine pro-B cells), retroviral transduction, puromycin selection, maintained with EGF
In short: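 This growth assay used Ba/F3 cells that depend on wild-type EGFR and are kept in EGF without IL3. Compounds were made up as 10 mM DMSO stocks and diluted 3-fold over 10 points. 120 nL went onto 600 cells/well. After 72 hours, 40 μL CellTiter-Glo was added and luminescence read on EnVision after 30 min.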

[9] = molecular target: T1, EGFR exon 20 NPG Ins D770_N771 (Ba/F3 cells); assay: Inhibitor activity on EGFR phosphorylation (pEGFR AlphaLISA, 2 h), Ba/F3 EGFR exon 20 NPG Ins
In short: as §2

[10] = molecular target: T3, EGFR exon 19del (Ba/F3 cells); assay: Inhibitor activity on EGFR-dependent cell growth (CellTiter-Glo, 72 h), Ba/F3 EGFR exon 19del; conditions: Ba/F3 EGFR exon 19del cell growth, read-out: BaF3 Del19 IC50
In short: as §3

[11] = molecular target: T4, EGFR exon 20 ASV Ins V769_D770 (Ba/F3 cells); assay: Inhibitor activity on EGFR phosphorylation (pEGFR AlphaLISA, 2 h), Ba/F3 EGFR exon 20 ASV Ins; conditions: EGFR phosphorylation, AlphaLISA, 2 hours; read-out: ASV IC50 (pEGFR)
In short: as §2

[12] = molecular target: T7, EGFR L858R (Ba/F3 cells) (Homo sapiens, UniProt P00533, L858R); assay: Inhibitor activity on EGFR-dependent cell growth (CellTiter-Glo, 72 h), Ba/F3 EGFR L858R; conditions: read-out: BaF3 L858R IC50
T7 construct: expressed in transfected cells; host or cells: Ba/F3 (murine pro-B cells), retroviral transduction, puromycin selection, IL3-independent pool
In short: as §3

[13] = molecular target: T8, EGFR exon 20 FQEA Ins A763_V764 (Ba/F3 cells) (Homo sapiens, UniProt P00533, INS763FQEA); assay: Inhibitor activity on EGFR-dependent cell growth (CellTiter-Glo, 72 h), Ba/F3 EGFR exon 20 FQEA Ins; conditions: read-out: BaF3 FQEA IC50
T8 construct: expressed in transfected cells; host or cells: Ba/F3 (murine pro-B cells), retroviral transduction, puromycin selection, IL3-independent pool
In short: as §3

[14] = molecular target: T7, EGFR L858R (Ba/F3 cells); assay: Inhibitor activity on EGFR phosphorylation (pEGFR AlphaLISA, 2 h), Ba/F3 EGFR L858R
In short: as §2

[15] = molecular target: T5, EGFR exon 20 SVD Ins D770_N771 (Ba/F3 cells); assay: Inhibitor activity on EGFR-dependent cell growth (CellTiter-Glo, 72 h), Ba/F3 EGFR exon 20 SVD Ins; conditions: read-out: BaF3 SVD IC50
In short: as §1

T5 sequence (P00533 with tags, fused parts or gaps INS770SVD): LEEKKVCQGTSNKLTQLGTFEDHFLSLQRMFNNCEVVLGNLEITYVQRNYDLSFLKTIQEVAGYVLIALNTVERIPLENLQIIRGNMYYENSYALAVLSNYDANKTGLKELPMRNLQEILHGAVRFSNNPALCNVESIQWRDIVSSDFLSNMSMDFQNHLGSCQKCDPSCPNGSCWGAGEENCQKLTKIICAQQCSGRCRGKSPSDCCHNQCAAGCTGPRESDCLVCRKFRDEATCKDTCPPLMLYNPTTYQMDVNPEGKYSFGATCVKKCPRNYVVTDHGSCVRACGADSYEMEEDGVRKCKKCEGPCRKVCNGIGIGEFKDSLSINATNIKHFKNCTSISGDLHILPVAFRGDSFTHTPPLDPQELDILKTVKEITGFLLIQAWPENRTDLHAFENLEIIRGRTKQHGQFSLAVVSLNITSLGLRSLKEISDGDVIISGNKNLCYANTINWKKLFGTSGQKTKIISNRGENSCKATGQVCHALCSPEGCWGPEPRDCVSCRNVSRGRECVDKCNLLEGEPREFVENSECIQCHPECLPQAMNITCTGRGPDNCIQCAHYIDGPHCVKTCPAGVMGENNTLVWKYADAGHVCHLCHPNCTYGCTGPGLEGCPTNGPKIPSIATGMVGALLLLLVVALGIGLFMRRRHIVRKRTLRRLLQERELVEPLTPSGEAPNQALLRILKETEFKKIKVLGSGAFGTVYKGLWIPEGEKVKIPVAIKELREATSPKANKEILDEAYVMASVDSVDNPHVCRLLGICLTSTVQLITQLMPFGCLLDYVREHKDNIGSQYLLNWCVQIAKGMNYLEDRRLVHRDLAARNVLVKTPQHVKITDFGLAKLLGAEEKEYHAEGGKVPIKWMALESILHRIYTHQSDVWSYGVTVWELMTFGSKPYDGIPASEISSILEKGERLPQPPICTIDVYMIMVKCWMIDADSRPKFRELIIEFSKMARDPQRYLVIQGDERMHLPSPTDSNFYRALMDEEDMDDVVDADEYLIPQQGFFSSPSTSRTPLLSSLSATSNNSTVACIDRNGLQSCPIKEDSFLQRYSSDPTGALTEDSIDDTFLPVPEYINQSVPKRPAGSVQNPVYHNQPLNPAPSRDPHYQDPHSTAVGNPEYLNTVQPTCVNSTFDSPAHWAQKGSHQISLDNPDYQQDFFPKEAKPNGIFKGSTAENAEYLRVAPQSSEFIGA
T6 sequence (P00533 25-1210): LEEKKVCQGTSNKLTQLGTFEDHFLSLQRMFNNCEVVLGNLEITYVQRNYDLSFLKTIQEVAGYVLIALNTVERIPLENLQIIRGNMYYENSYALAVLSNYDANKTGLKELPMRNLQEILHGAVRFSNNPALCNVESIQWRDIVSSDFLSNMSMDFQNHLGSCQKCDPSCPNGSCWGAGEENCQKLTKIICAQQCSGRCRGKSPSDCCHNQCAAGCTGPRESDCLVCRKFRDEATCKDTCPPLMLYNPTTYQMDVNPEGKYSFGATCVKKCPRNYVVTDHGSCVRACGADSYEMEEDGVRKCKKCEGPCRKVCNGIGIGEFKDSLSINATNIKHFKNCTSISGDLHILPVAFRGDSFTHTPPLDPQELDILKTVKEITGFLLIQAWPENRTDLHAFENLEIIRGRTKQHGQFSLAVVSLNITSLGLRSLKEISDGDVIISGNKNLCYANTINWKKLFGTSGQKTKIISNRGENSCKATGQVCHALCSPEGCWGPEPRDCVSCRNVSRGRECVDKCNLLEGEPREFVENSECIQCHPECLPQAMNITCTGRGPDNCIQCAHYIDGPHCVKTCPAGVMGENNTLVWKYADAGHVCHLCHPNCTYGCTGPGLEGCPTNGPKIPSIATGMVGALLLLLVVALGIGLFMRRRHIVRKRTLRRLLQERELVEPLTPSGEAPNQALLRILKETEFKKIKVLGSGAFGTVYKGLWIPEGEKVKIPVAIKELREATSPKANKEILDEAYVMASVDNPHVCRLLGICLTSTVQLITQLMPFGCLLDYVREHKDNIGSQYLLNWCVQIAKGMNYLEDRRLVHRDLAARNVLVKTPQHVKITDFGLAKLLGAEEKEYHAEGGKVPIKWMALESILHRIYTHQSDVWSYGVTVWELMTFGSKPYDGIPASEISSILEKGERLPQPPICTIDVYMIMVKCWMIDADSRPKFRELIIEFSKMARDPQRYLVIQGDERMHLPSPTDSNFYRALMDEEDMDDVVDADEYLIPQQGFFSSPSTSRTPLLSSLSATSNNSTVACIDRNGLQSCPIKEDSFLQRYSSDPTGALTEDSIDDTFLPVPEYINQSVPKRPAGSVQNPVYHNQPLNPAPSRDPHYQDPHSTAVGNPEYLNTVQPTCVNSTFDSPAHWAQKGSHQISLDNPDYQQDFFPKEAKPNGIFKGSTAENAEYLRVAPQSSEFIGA
T4 sequence (P00533 with tags, fused parts or gaps INS769ASV): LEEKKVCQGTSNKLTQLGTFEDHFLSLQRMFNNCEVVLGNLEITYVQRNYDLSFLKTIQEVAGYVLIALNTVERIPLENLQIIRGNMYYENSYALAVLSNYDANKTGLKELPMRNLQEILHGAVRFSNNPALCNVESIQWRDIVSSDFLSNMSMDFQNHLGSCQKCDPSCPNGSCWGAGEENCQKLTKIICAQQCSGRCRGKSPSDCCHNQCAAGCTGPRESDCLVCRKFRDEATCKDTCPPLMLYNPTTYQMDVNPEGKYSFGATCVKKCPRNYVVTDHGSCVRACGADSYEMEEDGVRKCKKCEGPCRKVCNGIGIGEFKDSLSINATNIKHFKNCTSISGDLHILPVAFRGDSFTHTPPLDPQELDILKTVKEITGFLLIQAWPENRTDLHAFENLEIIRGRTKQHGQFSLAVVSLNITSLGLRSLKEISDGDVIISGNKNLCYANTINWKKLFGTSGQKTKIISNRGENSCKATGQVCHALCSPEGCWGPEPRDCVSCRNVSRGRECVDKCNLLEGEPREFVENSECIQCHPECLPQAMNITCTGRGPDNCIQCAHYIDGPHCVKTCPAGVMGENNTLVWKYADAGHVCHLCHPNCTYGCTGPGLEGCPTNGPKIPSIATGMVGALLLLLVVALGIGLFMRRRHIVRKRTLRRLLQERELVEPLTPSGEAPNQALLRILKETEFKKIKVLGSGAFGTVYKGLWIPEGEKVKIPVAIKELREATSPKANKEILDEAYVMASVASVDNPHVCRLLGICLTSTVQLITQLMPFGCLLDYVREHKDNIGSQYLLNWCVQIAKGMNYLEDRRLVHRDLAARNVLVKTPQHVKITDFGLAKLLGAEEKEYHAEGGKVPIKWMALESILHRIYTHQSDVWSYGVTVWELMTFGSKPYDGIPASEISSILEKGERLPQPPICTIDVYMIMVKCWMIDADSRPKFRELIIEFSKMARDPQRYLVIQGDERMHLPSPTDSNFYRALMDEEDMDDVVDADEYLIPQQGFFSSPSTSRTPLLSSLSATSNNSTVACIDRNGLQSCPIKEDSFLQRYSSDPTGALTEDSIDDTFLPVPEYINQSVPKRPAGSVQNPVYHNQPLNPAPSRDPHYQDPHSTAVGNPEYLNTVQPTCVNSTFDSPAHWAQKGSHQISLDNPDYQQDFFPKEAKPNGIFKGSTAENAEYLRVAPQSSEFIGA
T3 sequence (P00533 with tags, fused parts or gaps DEL746-750): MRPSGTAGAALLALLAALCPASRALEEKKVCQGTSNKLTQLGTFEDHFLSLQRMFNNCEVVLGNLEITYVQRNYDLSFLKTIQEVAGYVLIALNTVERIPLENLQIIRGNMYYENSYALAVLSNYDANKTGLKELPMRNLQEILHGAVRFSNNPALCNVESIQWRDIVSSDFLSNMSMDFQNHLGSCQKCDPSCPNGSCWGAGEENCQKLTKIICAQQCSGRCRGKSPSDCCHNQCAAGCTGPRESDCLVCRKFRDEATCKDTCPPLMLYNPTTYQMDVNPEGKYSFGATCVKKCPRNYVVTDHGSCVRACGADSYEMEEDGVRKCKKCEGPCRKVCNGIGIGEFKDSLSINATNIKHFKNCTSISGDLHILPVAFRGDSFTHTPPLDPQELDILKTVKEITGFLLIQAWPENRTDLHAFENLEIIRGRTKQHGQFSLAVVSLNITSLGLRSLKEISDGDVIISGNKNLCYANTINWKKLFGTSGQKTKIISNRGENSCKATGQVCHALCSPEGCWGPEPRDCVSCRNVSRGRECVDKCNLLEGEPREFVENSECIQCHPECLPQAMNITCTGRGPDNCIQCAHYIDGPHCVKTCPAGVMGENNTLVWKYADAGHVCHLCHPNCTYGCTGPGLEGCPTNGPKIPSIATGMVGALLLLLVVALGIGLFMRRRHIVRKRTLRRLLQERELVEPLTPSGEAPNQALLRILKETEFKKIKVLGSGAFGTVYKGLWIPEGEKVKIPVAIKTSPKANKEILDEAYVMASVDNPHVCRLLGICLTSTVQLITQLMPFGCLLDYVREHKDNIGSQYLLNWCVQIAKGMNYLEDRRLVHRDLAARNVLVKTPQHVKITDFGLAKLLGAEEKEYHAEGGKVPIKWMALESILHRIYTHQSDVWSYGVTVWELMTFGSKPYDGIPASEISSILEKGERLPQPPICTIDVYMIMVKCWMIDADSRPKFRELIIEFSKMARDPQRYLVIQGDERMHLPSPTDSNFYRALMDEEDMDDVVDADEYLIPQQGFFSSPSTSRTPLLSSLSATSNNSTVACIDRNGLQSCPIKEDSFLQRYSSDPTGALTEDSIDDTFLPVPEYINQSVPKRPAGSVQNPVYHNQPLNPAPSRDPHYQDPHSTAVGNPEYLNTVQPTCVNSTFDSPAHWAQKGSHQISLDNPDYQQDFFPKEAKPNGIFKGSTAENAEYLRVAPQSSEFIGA

| pIC50 [1] | pIC50 [2] | pIC50 [3] | pIC50 [4] | pIC50 [5] | pIC50 [6] | pIC50 [7] | pIC50 [8] | pIC50 [9] | pIC50 [10] | pIC50 [11] | pIC50 [12] | pIC50 [13] | pIC50 [14] | pIC50 [15] | Compound |
| --- | --- | --- | --- | --- | --- | --- | --- | --- | --- | --- | --- | --- | --- | --- | --- |
| > 7.00 | > 7.00 | > 7.00 | > 7.00 | > 7.00 | > 7.00 | > 7.00 | 6.00 to 7.00 | > 7.00 | > 7.00 | > 7.00 | > 7.00 | > 7.00 | > 7.00 | > 7.00 | COCC[C@@H]1CNC(=O)c2c1[nH]c(-c1ccncc1F)c2Nc1cccc(F)c1OC [421b] |
| > 7.00 | > 7.00 | > 7.00 | > 7.00 |  | > 7.00 | > 7.00 | 6.00 to 7.00 | > 7.00 | > 7.00 | > 7.00 | > 7.00 | > 7.00 | > 7.00 |  | COc1c(Cl)cccc1Nc1c(-c2ccnc(C)n2)[nH]c2c1C(=O)NC[C@H]2C[C@@H]1COCCO1 (single isomer, unassigned) [Compound 570] |
| > 7.00 | > 7.00 | > 7.00 | > 7.00 | > 7.00 | > 7.00 | > 7.00 | 6.00 to 7.00 | > 7.00 | > 7.00 | > 7.00 | > 7.00 | > 7.00 | > 7.00 | > 7.00 | COc1c(F)cccc1Nc1c(-c2ccncc2F)[nH]c2c1C(=O)NC[C@@H]2CC1COCCO1 (stereo in doubt) [Compound 525, (7S)-7-[(2R)-1,4-dioxan-2-ylmethyl]-3-[(3-fluoro-2-methoxyphenyl)amino]-2-(3-fluoropyridin-4-yl)-1H,5H,6H,7H-pyrrolo[3,2-c]pyridin-4-one] |
| > 7.00 |  |  | > 7.00 | > 7.00 | > 7.00 |  | 6.00 to 7.00 | > 7.00 | > 7.00 | > 7.00 | > 7.00 | > 7.00 |  | > 7.00 | COc1c(Cl)cccc1Nc1c(-c2ccnc(N)n2)[nH]c2c1C(=O)NC[C@H]2C[C@@H]1COCCO1 [Compound 567, (7R)-2-(2-aminopyrimidin-4-yl)-3-[(3-chloro-2-methoxyphenyl)amino]-7-[(2R)-1,4-dioxan-2-ylmethyl]-1H,5H,6H,7H-pyrrolo[3,2-c]pyridin-4-one] |
